The source of these data is article PMC11132046, “A Natural Peptide from A Traditional Chinese Medicine Has the Potential to Treat Chronic Atrophic Gastritis by Activating Gastric Stem Cells” (Advanced Science, 2024).

“Also recorded” adds a separate entry of the source. Where no end group is shown, it is not given here.

For data set [1] the following is noted: no reference given; cited from earlier work. An excerpt: Moreover, PEEPA‐P5 has unique properties compared to EGF. […] Third, PEEPA‐induced ERK and Stat1 activation is much slower.
In data set [2] the test system is EGFR-Stat1 and EGFR-ERK signaling in NAG organoids. The data set can be described thus: Western blot of EGFR signaling in NAG patient-derived gastric organoids. Format: cell-based, human. The note with it: organoids from NAG patients. As for the experimental part:
(§1) The gastric antrum of mice was harvested and the middle part was cut open. After cleaning in PBS containing 1% pencillin‐streptomycin (PS) for several times, the food residue and other impurities were completely removed. The gastric gland epithelial layer was separated from the muscle layer with forceps under the stereoscope. The epithelial layer was cut into 2.5 mm long fragments, which were digested in 2.5 mM EDTA/DPBS at 4 °C for 1 h. The gland fragments were filtered through a 70 µm strainer (Thermo Fisher), washed with cold DPBS buffer, and centrifuged at 1000 rpm for 5 min. Afterward, the gland sediments were suspended in growth factor reduced phenol‐free Matrigel (Corning) and seeded into 48‐well plate. […] At different time points (Day 1, 3, 5, and 7), the organoids were observed under inverted microscope, and the organ diameter and bud numbers were measured to determine the levels of cell proliferation. […]
(§2) results were visualized and quantified using the FluoChem M system (ProteinSimple).
(§3) Cell culture and cell viability assay: Human gastric normal epithelial cell line GES-1 was cultured in DMEM medium containing 10% fetal bovine serum and 1% pencillin-streptomycin at 37℃ with 5% CO2. […] After 3 days, substrate tetrazolium salt was added to each sample and incubated at 37℃ for 2 hrs and the absorbance at 450 nm was measured using BioTeck. […]

Data set [3] relates to EGFR-Stat1 and EGFR-ERK signaling in AG organoids. The data set can be described thus: Western blot of EGFR signaling in AG patient-derived gastric organoids. The note with it: organoids from AG patients. Format: cell-based, human. How it is done: as §1, §2, §3
Data set [4] concerns EGFR, ERKs, Stat1, Akt1, Stat3 in GES-1 cells. Put plainly: Western blot of EGFR downstream signaling in GES-1 cells. As to conditions: EGF 0.4 µM. The format is cell-based, human. As for the experimental part:
Western Blot: Tissue proteins were isolated using T-PER Tissue Protein Extraction Reagent (Thermo Fisher, #78510). Proteins of cultured cells were extracted using RIPA lysis buffer supplemented with 1 mM PMSF, […] pepstatin, leupeptin, and aprotonin. Equal amounts of total proteins were subjected to SDS-PAGE and transferred to PVDF membrane (Millipore). The primary antibodies include: p-Stat1 […]
as §2
Cell culture and cell viability assay: Human gastric normal epithelial cell line GES-1 was cultured in DMEM medium containing 10% fetal bovine serum and 1% pencillin- […]
streptomycin at 37℃ with 5% CO2. […]
(§4) TRIzol reagent. cDNA was reverse transcribed from 500 ng RNA by PrimeScript RT […]
(§5) Light Cycler 480. The sequences of primers are as follows: Gastrin-F: 5’- GGACAGGGACCAATGAGG-3’; Gastrin-R: 5’-
(§6) -3’; SST-F: 5’-ACCGGGAAAAGGAACTGG-3’;
(§7) SST-R: 5’-TTGCTGGGTTCGAGTTGGC-3’; Muc5ac-F: 5’-
(§8) AGCCTAGCCACCACCTTAG-3’; TFF1-F: 5’-[…]-3’;
(§9) TFF1-R: 5’-[…]-3’; TFF2-F: 5’- TGCTCTGGTAGAGGGCGAG-3’; TFF2-R: 5’-CGAGCTAGAGTCAAAGAG-3’;
(§10) Spdef-F: 5’-GGAGGAGACTCTTCTGAAG-3’; Spdef-R: 5’-
(§11) -3’. For human genes, hPCNA-F: 5’-
(§12) CAGCGGTAGGTGTCGAAGC-3’; hTFF2-F: 5’-[…]-
(§13) 3’; hTTF2-R: 5’-[…]-3’; hMuc5ac-F: 5’-
(§14) GCGCACAGAGGATGACAGT-3’; hATP4b-F: 5’-[…]-
(§15) 3’; hATP4b-R: 5’-[…]-3’; hGastrin-F: 5’-
GCCCCTGTACCTAAGGGTG-3’; hAxin2-F: 5’- […]
Background: A western blot detects proteins with antibodies after separation by electrophoresis.

For data set [5] the following is noted: cited from earlier work. The source says:
Herein, by analyzing AG model mice and patient samples with genetic tracing, organoid cultures, and RNA‐seq, we uncovered GSC defects as a critical AG pathogenic factor, associated with decreased signaling of EGF, an important GSC niche molecule. […] We wanted to test their therapeutic effect on AG model mice generated with n‐methyl‐n‐nitro‐n‐nitrosoguanidine (MNNG) and ranitidine (Figure 1A).

The test system of data set [6] is liver and kidney of AG model mice. The data set can be described thus: Body weight and liver/kidney histology in AG model mice. As to conditions: PEEPA-P5; H&E, representative of three mice. Format: in vivo, mouse. As for the experimental part: (§16) For establishment of a mouse model of atrophic gastritis, normal mice had free access to water containing N‐methyl‐N‐nitro‐N‐nitrosoguanidine (MNNG, […]). Moreover, the mice were given 400 µL of ranitidine (8 mg mL^−1) in solution at a dose of 150 mg kg^−1 daily. After 20 weeks, the mice were euthanized and examined.
(§17) Periplaneta americana insects were cultivated in an industrialized facility and the ethanol extract of (PEEPA) was prepared with a standardized method, which was dissolved in the vehicle containing water, 15% glycerol and 0.2% potassium sorbate. PEEPA‐derived peptides (PEEPA‐P5) were dissolved to 500 ng mL^−1 in water for in vitro experiments and to 1 mg mL^−1 for in vivo experiments. Mice were administrated with PEEPA, PEEPA‐P5, or vehicle through oral gavage daily for 2 or 4 weeks.

Another data set concerns GES-1 cells. Put plainly: Cell viability assay (CCK-8). Format: cell-based, human. As for the experimental part:
Cell culture and cell viability assay: Human gastric normal epithelial cell line GES-1 was cultured in DMEM medium containing 10% fetal bovine serum and 1% pencillin-streptomycin at 37℃ with 5% CO2. For cell viability assay, Cell Counting Kit-8 (CCK-8) was purchased from KeyGEN BioTECH Corp., Ltd. The cells were cultured in 96-wells plate and PEEPA-P5 was added in each well with different concentrations. After 3 days, substrate tetrazolium salt was added to each sample and incubated at 37℃ for 2 hrs and the absorbance at 450 nm was measured using BioTeck. […]
as §4, §5, §6, §7, §8, §9, §10, §11, §12, §13, §14, §15
GCCCCTGTACCTAAGGGTG-3’; hAxin2-F: 5’-
RNA sequencing: The gastric muscle layer was removed under the stereoscope and the […]

Data set [7] is described as follows: Retention / stability in murine stomach (P5-fluorescein). Format: in vivo.
For another data set, the system named is gastric organoids. Put plainly: Inhibition of PEEPA-induced organoid growth by pathway inhibitors. The format is cell-based, mouse. As for the experimental part: For JAK‐Stat, MEK1 and EGFR inhibition, organoid cultures were respectively treated with Ruxotilinib (15 µM, Selleck, #s1039), U0126 (20 µM, Selleck, #s1102) and Afatinib (1 µM, Selleck, #s1011). The inhibitor was prepared following the manufacturer's instruction.

The next data set deals with AG model mice. Put plainly: AG mouse model (MNNG + ranitidine): histology and histopathology scoring. Format: in vivo. The note with it: comparison Moludan, Sijunzi decoction, berberine. How it is done: as §16, §17
For murine gastritis samples, histologic scoring was blindly done following standard criteria. In brief, the oxyntic atrophy scoring was determined by the absence of parietal and chief cells in mucosa and the gastritis histology index has three categories, inflammation, epithelial defects, and oxyntic atrophy. A larger score represents a more severe gastritis.

In the case of “EGF: GSC niche molecule; EGF protein used as comparison”, the “stability in acidic stomach environment” value in data set [1] was “instability of EGF in acidic stomach environment”. Further, the “sensitivity to EGF, NAG organoids” value in data set [2] is “organoids from NAG patients are highly sensitive to EGF”. Also, the “sensitivity to EGF, AG organoids” value in data set [3] was “organoids from AG patients are insensitive”. The “downstream signaling activated by EGF” value in [4] was “activates ERK, Akt1, and Stat1/3 signaling”. In addition, in data set [5] (ref [15]), the “secretion of defensin 3” value was “promotes secretion of defensin 3”.

The IC50 is the concentration that inhibits the measured activity by half. A low value points to higher potency. On to PAAEPVPLVKQD [PEEPA-P5], for which the “effect on liver or kidney” value in data set [6] is given as “little effect on the kidney or liver structure; also recorded: no obvious effect on the liver or kidney”. For the same compound, in the data set on GES-1 cells, it took 284 µM to reach half-maximal inhibition (IC50). Moreover, in the data set on GES-1 cells (CCK-8, 3 days), the “toxicity towards GES-1 cells” value was “low cell toxicity”. Also, the “stability in the acidic environment of the stomach” value in data set [7] (inferred from retention of P5-fluorescein in mouse stomach) is “relatively stable in the acidic environment of the stomach”. In addition, in data set [7] (mouse, oral gavage, measured using P5-fluorescein (PEEPA-P5-FITC), fluorescence at different time points), the “retention time in the stomach” value is recorded as 3.09 h.

On to `CN(C)C/C=C/C(=O)Nc1cc2c(Nc3ccc(F)c(Cl)c3)ncnc2cc1O[C@H]1CCOC1` [afatinib], for which, in the data set on gastric organoids (EGFR inhibitor afatinib 1 µM, mean ± SD, n=3), the “effect on PEEPA-induced organoid growth” value is on record as “blocked the pro‐growth effect of PEEPA on gastric organoids”.

For the compound `COc1ccc2cc3[n+](cc2c1OC)CCc1cc2c(cc1-3)OCO2` [berberine, reference compound], the “restoration of gland structure, gastritis histology index and oxyntic atrophic score (compared with PEEPA)” value in the data set on AG model mice is listed as “only PEEPA restored the gastric gland structure”. The “reported therapeutic effects on AG” value in data set [5] (ref [16]) is reported as “therapeutic effects on AG”.

Turning to `N#CC[C@H](C1CCCC1)n1cc(-c2ncnc3[nH]ccc23)cn1` [Ruxo, ruxolitinib], the “effect on PEEPA-induced organoid growth and differentiation” value in the data set with gastric organoids (Jak inhibitor Ruxo 15 µM, n=6 (growth), n=3 (qPCR)) is “impeded PEEPA‐induced organoid growth and differentiation”. In the data set on gastric organoids (Ruxo, qPCR, mean ± SD, n=3), the “expression of differentiation markers in gastric organoids” value is “suppressed the expression of differentiation markers”.

With `N#CC(=C(/N)Sc1ccccc1N)/C(C#N)=C(/N)Sc1ccccc1N` [U0126], the “effect on PEEPA-induced organoid growth” value in the data set with gastric organoids (ERK inhibitor U0126 20 µM, mean ± SD, n=3) is “suppressed PEEPA‐induced organoid growth”.
